From patent US20110262502A1, “PULMONARY DELIVERY OF 17-HYDROXYPROGESTERONE CAPROATE (17-HPC)” (Prairie Pharmaceuticals LLC, priority 2010, published 2011)
Read-outs that look alike come from different tables or passages of the source.

Tests used:
[1] = test system: PHA-induced IL-2 production in PBMCs; assay: PHA-induced IL-2 production in PBMCs from healthy male smokers (no IL-2/IL-4 added), ELISA; assay type: cell-based, human; details: for inhibition at 0.01 µM / inhibition at 10 µM / inhibition at 0.0001 µM: Homo sapiens, PBMC
Method: PBMCs were isolated from human blood buffy coats provided by a regional blood center. Random buffy coat cells from male donors were a by-product of blood processed for clinical use and no details (i.e., personal identification and background) were provided except for tobacco use. […] PBMCs were separated using a porous high density polyethylene barrier (HISTOPAQUE from GEHealthcare Bio-Sciences AB (US). After centrifugation of blood samples in each tube (35 minutes at 800×g at room temperature, or RT), PBMCs were collected and washed twice with Hank's buffered saline solution (HBSS). PBMCs were resuspended in RPMI-1640 medium containing 10% fetal calf serum (FCS) and 15 mM glutamine and cells were counted and plated.
(§1) PBMCs (2×10^6) were incubated with or without IL-2 (13 ng/ml) and IL-4 (6.5 ng/ml) for 48 hours in RPMI-1640 medium containing 10% FCS and 2 mM glutamine. […] IL-2 and IL-4 stimulated PBMCs were also plated at a concentration of 10^6 cells/ml in 96-well plates ready for PHA (15 μg/mL, 24 hours) stimulation of cytokine release and detection by ELISA.
Serial dilutions of standards and PBMCs' supernatants were measured by enzyme linked immunosorbent assay to determine IL-2 at baseline and its levels after 17HPC, P4 and MAP treatments. Optical density was measured at 450 nm and corrected with 550 nm. The concentration of TL-2 was calculated using the standard curve and taking into account the supernatant dilution used. Detection limit for IL-2 is 4.0 pg/ml.
Data are expressed as mean±SD. The efficacies of the drug treatments were analyzed by paired t-test. One-way analysis of variance was used to compare three or more matched groups and 95% CI was performed to present groups differences. All graphs indicate mean values of results or % inhibition of PHA-stimulated IL-2. IC50 values were calculated by using a sigmoidal model (BioDataFit). A p value <0.05 was considered statistically significant.
(§2) IL-2 levels were quantified using ELISA.
IL-2 levels were quantified using ELISA. IC50 values were calculated by using a sigmoidal model (BioDataFit).
as §2, §2, §2

[2] = test system: PHA-induced IL-2 release in IL-2 and IL-4 treated (steroid resistant) PBMCs; assay: IL-2/IL-4 induced steroid resistance model in PBMCs: dexamethasone inhibition of PHA-induced IL-2 release; assay type: cell-based, human; details: Dexamethasone 10^−10 M
Method: J Immunol 2009; 183; 164-171). […] Following PBMCs stimulation with mitogen phytohaemagglutinin (PHA), there is a strong correlation between cytokine secretion levels and steroid resistance as well as steroid sensitivity in vitro. Addition of IL-2, IL-4 and TNF-reduce steroid sensitivity.
as §1
IL-2/4 induced steroid resistance in PBMCs, a well-recognized study model, was used to evaluate potential modifiers of steroid resistance and sensitivity. PBMCs from healthy smokers were collected. Corticosteroid insensitivity or resistance was induced by adding IL-2 and IL-4 in peripheral blood mononuclear cells (PBMCs) from healthy male smokers (n=˜11). […] IL-2 levels were quantified using ELISA.
J Immunol 2009; 183; 164-171).
as §2

[3] = test system: patients with severe premenstrual exacerbations of asthma; details: intramuscular, added to regimen incl. corticosteroids; 3 cases; cited from earlier work
[4] = test system: females with severe asthma; details: sublingual; sixteen patients; cited from earlier work
[5] = test system: mitogen-activated protein kinase; details: rat uterine smooth muscle; cited from earlier work
[6] = read-out: % inhibition of PHA-induced IL-2 production
[7] = MPA 10^−5M + Dexamethasone 10E−8M
[8] = MPA 10^−8M + Dexamethasone 10E−8M
[9] = MPA 10^−8M + Dexamethasone 10E−11M
[10] = MPA 10^−10M + Dexamethasone 10E−8M
[11] = P4 10^−5M + Dexamethasone 10E−8M
[12] = P4 10^−8M + Dexamethasone 10E−8M
[13] = P4 10^−8M + Dexamethasone 10E−11M
[14] = P4 10^−10M + Dexamethasone 10E−8M

## CC(=O)O[C@]1(C(C)=O)CC[C@H]2[C@@H]3C[C@H](C)C4=CC(=O)CC[C@]4(C)[C@H]3CC[C@@]21C [MPA, MEDROXYPROGESTERONE ACETATE]
[1]
  inhibition at 0.01 µM: 78%
  inhibition at 10 µM: 95%
[1]; [6]
  inhibition at 0.0001 µM: 73%
[1]; read-out: IL-2 inhibition
  inhibition at 0.0001 µM: ≥ 86%
[1]; [7]
  % inhibition of PHA-induced IL-2 production: (98%)
  mean IL-2: 12.3 pg/mL
[1]; MPA 10^−5M, PHA, no Dexamethasone
  mean IL-2: 39.8 pg/mL
[1]; [8]
  % inhibition of PHA-induced IL-2 production: 96%
  mean IL-2: 29.2 pg/mL
[1]; [9]
  % inhibition of PHA-induced IL-2 production: (83%)
  mean IL-2: 129.1 pg/mL
[1]; MPA 10^−8M, PHA, no Dexamethasone
  mean IL-2: 166.9 pg/mL
[1]; [10]
  % inhibition of PHA-induced IL-2 production: (94%)
  mean IL-2: 44.7 pg/mL
[1]; MPA 10^−10M, PHA, no Dexamethasone
  mean IL-2: 206.1 pg/mL
[2]; FIG. 9
  improvement in corticosteroid sensitivity, responding sub-group: up to 58%
  reduction (worsening) in corticosteroid sensitivity, other sub-group: up to 88%

## CC(=O)[C@H]1CC[C@H]2[C@@H]3CCC4=CC(=O)CC[C@]4(C)[C@H]3CC[C@]12C [P4, Progesterone]
[1]
  inhibition at 0.01 µM: 36%
  inhibition at 10 µM: 85%
[1]; [6]
  inhibition at 0.0001 µM: 34%
[1]; read-out: IL-2 inhibition
  inhibition at 0.0001 µM: ≥ 86%
[1]; [11]
  % inhibition of PHA-induced IL-2 production: (89%)
  mean IL-2: 81.2 pg/mL
[1]; P4 10^−5M, PHA, no Dexamethasone
  mean IL-2: 113.8 pg/mL
[1]; [12]
  % inhibition of PHA-induced IL-2 production: (88%)
  mean IL-2: 91.4 pg/mL
[1]; [13]
  % inhibition of PHA-induced IL-2 production: (87%)
  mean IL-2: 100.8 pg/mL
[1]; P4 10^−8M, PHA, no Dexamethasone
  mean IL-2: 486.2 pg/mL
[1]; [14]
  % inhibition of PHA-induced IL-2 production: (92%)
  mean IL-2: 59.6 pg/mL
[1]; P4 10^−10M, PHA, no Dexamethasone
  mean IL-2: 506.9 pg/mL
[2]; FIGS. 7-8
  subjects with more than 10% improvement in maximal Dexamethasone inhibition: 6 out of 8
[3]
  effect on premenstrual fall in peak flow rate: eliminated the premenstrual dips in peak flow
[4]
  patients with an increase in both FEV1 and FVC: 50%
  patients with an increase of 27% or greater in PEF: 50%
  patients with bronchodilator effect (greater than 12% increase) in either FEV1 or FVC: 75%
[5]
  effect on MAPK tyrosine phosphorylation and membrane-associated MAPK activity: increased MAPK tyrosine phosphorylation and membrane-associated MAPK activity

## estradiol-17 beta [estrogen]
[5]
  effect on MAPK tyrosine phosphorylation and membrane-associated MAPK activity: increased MAPK tyrosine phosphorylation and membrane-associated MAPK activity
